Where “and” joins values, the source holds several entries; their conditions need not be identical. Identical values can stand only once. Like-named read-outs stand apart in the source and are kept apart here.
Legend:
canine prostate [1] = conditions: for lesion volume: 1 cm porous segment, 2 h after injection
Protocol: Intraprostatic ethanol injections were performed in eight Beagle dogs for acute experiments. Animals received premedication with medetomidin (0.004 mg/kg), metadon (0.3 mg/kg), and acepromazil (0.02 mg/kg). Anesthesia was induced with propofol (1.5-2 mg/kg) and maintained by propofol (10 mg/kg/hour) and fentanyl (0.24 mg/kg/hour). Prostate exposure was performed using lower midline abdominal incisions and blunt dissection of surrounding tissues. The porous needle was stabilized with a fixation apparatus attached to the operating table and was deployed with a protective sheath in the lateral lobe of the prostate. […] Where possible, the distal end of the sheath was kept at least 2 mm from the pseudocapsule. […] Injections in both lateral lobes of each canine were performed. […] In the remaining experiments, 0.5, 1, 1.5, or 2 ml was injected into each prostatic lobe. In five experiments, a needle with a 1 cm long microporous segment was used, while a 2 cm long segment was used in one experiment. The tissue resistance during injections was measured by including the pressure transduced between the pump and the needle. Two hours following the second injection, the animals were anaesthetised by an intramuscular injection of medetomidine and ketamine, followed by intravenous injection of pentobarbital, and euthanized using exsanguination.
Histology slides were converted to digital images.

human prostate = experiment: Transperineal intraprostatic EtOH injection in heart-beating cadaveric organ donors; conditions: for average volume of the lesion: five human prostates, 1 cm porous segment
canine prostate [2] = experiment: Chronic canine experiment: intraprostatic EtOH injection, four weeks observation, autopsy and histology

## CCO [EtOH, ethanol]
Canine prostate [1]; 0.5 ml EtOH injected per lobe
  lesion volume: 208±58 mm^3
Canine prostate [1]; 1.0 ml EtOH injected per lobe
  lesion volume: 588±112 mm^3
Canine prostate [1]; 1.5 ml EtOH injected per lobe
  lesion volume: 791±338 mm^3
Canine prostate [1]; 2 cm porous segment compared with 1 cm
  tissue infiltration with 2 cm porous segment needle: larger areas of tissue infiltration
Canine prostate [1]; 2.0 ml EtOH injected per lobe
  lesion volume: 1158±200 mm^3
Canine prostate [1]; canine prostate section, FIG. 4
  necrotic areas, share of the section: more than 80%
Canine prostate [1]; dog, in vivo
  extraprostatic leak during injection: No extraprostatic leak
  prostatic pseudocapsule integrity: remained intact without evidence of disruption
Human prostate; 2 ml injected per lobe
  average volume of the lesion: 0.978 mL
Human prostate; 3 ml injected per lobe
  average volume of the lesion: 1.742 mL
Human prostate; average, human prostates
  lesion size with 3 ml relative to 2 ml: 1.78 ×
Human prostate; human prostates
  extraprostatic tissue injury: no evidence to the extraprostatic tissue injury was observed
  lesion localization: In all cases the lesion was localized within the prostate
  prostatic capsule integrity: remained intact
Canine prostate [2]; animals with wound swelling, lasted less than 24 hours
  transient increase in body temperature: 38.5 °C and 39 °C
Canine prostate [2]; chronic study
  extraprostatic leak during injection: free of exptraprostatic leak
  immediate complications: No immediate complications occurred
Canine prostate [2]; chronic study, four weeks observation
  long-term complications: swelling of the wound in two animals and serous exudation in one animal
Canine prostate [2]; four weeks after injection
  damage to adjacent structures at prostatectomy: no damage to adjacent structures
Canine prostate [2]; four weeks after injection, H&E
  tissue defects on whole mount sections: tissue defects (cavities) in all prostatic lobes injected with 1, 1.5, and 2 ml
Canine prostate [2]; four weeks after injection, histology
  prostatic pseudocapsule area: showed no abnormalities

Reference: patent US20250058082A1, “TRANSPERINEAL, TRANSRECTAL OR TRANSURETHRAL ADMINISTRATION OF ANTI-PROSTATE CANCER AGENTS FOR TREATING PROSTATE CANCER” (JESSENIUS FACULTY OF MEDICINE OF COMENIUS UNIVERSITY IN …, priority 2021, published 2025)
